Measured values as given in patent US20230085307A1, “PYRIDAZINONE COMPOUND AND HERBICIDE” (NISSAN CHEMICAL CORPORATION, priority 2019, published 2023).

Columns and labels:
[1] = tested on: late watergrass; test: Test Example 1: herbicidal activity, application before weed generation under submerged conditions (Table 16, symbol A); type: in vivo, late watergrass (Echinochloa oryzicola); details: 320 g/ha applied herbicide
Method in brief: (§1)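 Emulsion formulation, water-diluted to set dose, was put onto the flooded surface (4 cm depth, alluvial soil) the same day weeds were sown and 2.5-leaf rice transplanted. After 3 weeks at 25-30 °C under glass, each species was rated 0 (≤5% kill) to 5 (≥90% kill).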

[2] = tested on: Japanese bulrush; test: Test Example 1: herbicidal activity, application before weed generation under submerged conditions (Table 16, symbol B); type: in vivo, Japanese bulrush (Schoenoplectus juncoides); details: 320 g/ha applied herbicide
Method in brief: as §1

[3] = tested on: oval-leafed pondweed; test: Test Example 1: herbicidal activity, application before weed generation under submerged conditions (Table 16, symbol C); type: in vivo, oval-leafed pondweed (Monochoria vaginalis); details: 320 g/ha applied herbicide
Method in brief: as §1

[4] = tested on: barnyard grass; test: Test Example 3: herbicidal effect by foliage application, Wagner pot (Table 18, symbol H); type: in vivo, barnyard grass (Echinochloa crus-galli); details: 320 g/ha
Method in brief: (§2)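 Plants were sown in alluvial soil held under 0.1–0.5 cm standing water and grown 14 days in a greenhouse at 25–30 °C. An emulsifiable formulation, water-diluted to the set dose, was then sprayed onto the foliage, and effects were scored three weeks later using previously defined criteria.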

[5] = tested on: Chinese sprangletop; test: Test Example 3: herbicidal effect by foliage application, Wagner pot (Table 18, symbol D); type: in vivo, chinese sprangletop (Leptochloa chinensis); details: 320 g/ha
Method in brief: as §2

[6] = tested on: rice flat sedge; test: Test Example 3: herbicidal effect by foliage application, Wagner pot (Table 18, symbol E); type: in vivo, rice flat sedge (Cyperus iria); details: 320 g/ha
Method in brief: as §2

[7] = tested on: southern crabgrass; test: Test Example 4: herbicidal effect by soil treatment (Table 19, symbol F); type: in vivo, southern crabgrass (Digitaria ciliaris); details: amount of applied herbicide 320 g/ha
Method in brief: (§3)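 Step 1: sow seeds in sterilized diluvial soil, cover ~1.5 cm. Step 2: spray diluted emulsion onto soil surface at predetermined rate. Step 3: greenhouse, 25–30° C, three weeks. Step 4: grade effect on each plant by earlier criteria.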

[8] = tested on: green foxtail; test: Test Example 4: herbicidal effect by soil treatment (Table 19, symbol G); type: in vivo, green foxtail (Setaria viridis); details: amount of applied herbicide 320 g/ha
Method in brief: as §3

[9] = tested on: barnyard grass; test: Test Example 4: herbicidal effect by soil treatment (Table 19, symbol H); type: in vivo, barnyard grass (Echinochloa crus-galli); details: amount of applied herbicide 320 g/ha
Method in brief: as §3

[10] = tested on: wild oat; test: Test Example 4: herbicidal effect by soil treatment (Table 19, symbol I); type: in vivo, wild oat (Avena fatua); details: amount of applied herbicide 320 g/ha
Method in brief: as §3

[11] = tested on: blackgrass; test: Test Example 4: herbicidal effect by soil treatment (Table 19, symbol J); type: in vivo, blackgrass (Alopecurus myosuroides); details: amount of applied herbicide 320 g/ha
Method in brief: as §3

[12] = tested on: Italian ryegrass; test: Test Example 4: herbicidal effect by soil treatment (Table 19, symbol K); type: in vivo, Italian ryegrass (Lolium multiflorum); details: amount of applied herbicide 320 g/ha
Method in brief: as §3

[13] = tested on: windgrass; test: Test Example 4: herbicidal effect by soil treatment (Table 19, symbol L); type: in vivo, windgrass (Apera spica-venti); details: amount of applied herbicide 320 g/ha
Method in brief: as §3

[14] = tested on: velvetleaf; test: Test Example 4: herbicidal effect by soil treatment (Table 19, symbol M); type: in vivo, velvetleaf (Abutilon theophrasti); details: amount of applied herbicide 320 g/ha
Method in brief: as §3

[15] = tested on: redroot pigweed; test: Test Example 4: herbicidal effect by soil treatment (Table 19, symbol N); type: in vivo, redroot pigweed (Amaranthus retroflexus); details: amount of applied herbicide 320 g/ha
Method in brief: as §3

[16] = tested on: lambsquarters; test: Test Example 4: herbicidal effect by soil treatment (Table 19, symbol O); type: in vivo, lambsquarters (Chenopodium album); details: amount of applied herbicide 320 g/ha
Method in brief: as §3

[17] = tested on: chickweed; test: Test Example 4: herbicidal effect by soil treatment (Table 19, symbol P); type: in vivo, common chickweed (Stellaria media); details: amount of applied herbicide 320 g/ha
Method in brief: as §3

[18] = tested on: false cleavers; test: Test Example 4: herbicidal effect by soil treatment (Table 19, symbol Q); type: in vivo, false cleavers (Galium spurium); details: amount of applied herbicide 320 g/ha
Method in brief: as §3

[19] = tested on: persian speedwell; test: Test Example 4: herbicidal effect by soil treatment (Table 19, symbol R); type: in vivo, Persian speedwell (Veronica persica); details: amount of applied herbicide 320 g/ha
Method in brief: as §3

[20] = tested on: southern crabgrass; test: Test Example 5: herbicidal effect by foliage application, plastic box (Table 20, symbol F); type: in vivo, southern crabgrass (Digitaria ciliaris); details: foliage application, 320 g/ha, three weeks after application
Method in brief: (§4)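 Foliar spray test: emulsion formulation diluted in water to a set application rate, sprayed onto 14-day-old plants raised in diluvial soil at 25° C to 30° C under glass. Both herbicidal effect and crop effect rated visually three weeks later.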

[21] = tested on: green foxtail; test: Test Example 5: herbicidal effect by foliage application, plastic box (Table 20, symbol G); type: in vivo, green foxtail (Setaria viridis); details: foliage application, 320 g/ha, three weeks after application
Method in brief: as §4

[22] = tested on: barnyard grass; test: Test Example 5: herbicidal effect by foliage application, plastic box (Table 20, symbol H); type: in vivo, barnyard grass (Echinochloa crus-galli); details: foliage application, 320 g/ha, three weeks after application
Method in brief: as §4

[23] = tested on: wild oat; test: Test Example 5: herbicidal effect by foliage application, plastic box (Table 20, symbol I); type: in vivo, wild oat (Avena fatua); details: foliage application, 320 g/ha, three weeks after application
Method in brief: as §4

[24] = tested on: blackgrass; test: Test Example 5: herbicidal effect by foliage application, plastic box (Table 20, symbol J); type: in vivo, blackgrass (Alopecurus myosuroides); details: foliage application, 320 g/ha, three weeks after application
Method in brief: as §4

[25] = tested on: Italian ryegrass; test: Test Example 5: herbicidal effect by foliage application, plastic box (Table 20, symbol K); type: in vivo, Italian ryegrass (Lolium multiflorum); details: foliage application, 320 g/ha, three weeks after application
Method in brief: as §4

[26] = tested on: windgrass; test: Test Example 5: herbicidal effect by foliage application, plastic box (Table 20, symbol L); type: in vivo, windgrass (Apera spica-venti); details: foliage application, 320 g/ha, three weeks after application
Method in brief: as §4

[27] = tested on: velvetleaf; test: Test Example 5: herbicidal effect by foliage application, plastic box (Table 20, symbol M); type: in vivo, velvetleaf (Abutilon theophrasti); details: foliage application, 320 g/ha, three weeks after application
Method in brief: as §4

[28] = tested on: redroot pigweed; test: Test Example 5: herbicidal effect by foliage application, plastic box (Table 20, symbol N); type: in vivo, redroot pigweed (Amaranthus retroflexus); details: foliage application, 320 g/ha, three weeks after application
Method in brief: as §4

[29] = tested on: lambsquarters; test: Test Example 5: herbicidal effect by foliage application, plastic box (Table 20, symbol O); type: in vivo, lambsquarters (Chenopodium album); details: foliage application, 320 g/ha, three weeks after application
Method in brief: as §4

[30] = tested on: chickweed; test: Test Example 5: herbicidal effect by foliage application, plastic box (Table 20, symbol P); type: in vivo, common chickweed (Stellaria media); details: foliage application, 320 g/ha, three weeks after application
Method in brief: as §4

[31] = tested on: false cleavers; test: Test Example 5: herbicidal effect by foliage application, plastic box (Table 20, symbol Q); type: in vivo, false cleavers (Galium spurium); details: foliage application, 320 g/ha, three weeks after application
Method in brief: as §4

[32] = tested on: persian speedwell; test: Test Example 5: herbicidal effect by foliage application, plastic box (Table 20, symbol R); type: in vivo, Persian speedwell (Veronica persica); details: foliage application, 320 g/ha, three weeks after application
Method in brief: as §4

Structure (SMILES): CCCC(=O)Oc1c(C)nn(C)c(=O)c1-c1c(-c2ccc(OC)c(C)c2)sc2ccccc12 [1-069]
- Herbicidal effect on A: late watergrass (grade 0-5) [1]: 3 (Herbicidal rate of 40% or more and less than 70%)
- Herbicidal effect on B: Japanese bulrush (grade 0-5) [2]: 3 (Herbicidal rate of 40% or more and less than 70%)
- Herbicidal effect on C: oval-leafed pondweed (grade 0-5) [3]: 3 (Herbicidal rate of 40% or more and less than 70%)
- herbicidal effect on H (barnyard grass), rating 0-5 [4]: 3 (Herbicidal rate of 40% or more and less than 70%)
- herbicidal effect on D (Chinese sprangletop), rating 0-5 [5]: 0 (Herbicidal rate of 5% or less (almost no effect))
- herbicidal effect on E (rice flat sedge), rating 0-5 [6]: 5 (Herbicidal rate of 90% or more (almost completely withered))
- herbicidal effect rating, F: southern crabgrass [7]: 0 (Herbicidal rate of 5% or less (almost no effect))
- herbicidal effect rating, G: green foxtail [8]: 0 (Herbicidal rate of 5% or less (almost no effect))
- herbicidal effect rating, H: barnyard grass [9]: 0 (Herbicidal rate of 5% or less (almost no effect))
- herbicidal effect rating, I: wild oat [10]: 0 (Herbicidal rate of 5% or less (almost no effect))
- herbicidal effect rating, J: blackgrass [11]: 0 (Herbicidal rate of 5% or less (almost no effect))
- herbicidal effect rating, K: Italian ryegrass [12]: 0 (Herbicidal rate of 5% or less (almost no effect))
- herbicidal effect rating, L: windgrass [13]: 0 (Herbicidal rate of 5% or less (almost no effect))
- herbicidal effect rating, M: velvetleaf [14]: 0 (Herbicidal rate of 5% or less (almost no effect))
- herbicidal effect rating, N: redroot pigweed [15]: 0 (Herbicidal rate of 5% or less (almost no effect))
- herbicidal effect rating, O: lambsquarters [16]: 0 (Herbicidal rate of 5% or less (almost no effect))
- herbicidal effect rating, P: chickweed [17]: 3 (Herbicidal rate of 40% or more and less than 70%)
- herbicidal effect rating, Q: false cleavers [18]: 0 (Herbicidal rate of 5% or less (almost no effect))
- herbicidal effect rating, R: persian speedwell [19]: 4 (Herbicidal rate of 70% or more and less than 90%)
- herbicidal effect grade, F: southern crabgrass [20]: 0 (Herbicidal rate of 5% or less (almost no effect))
- herbicidal effect grade, G: green foxtail [21]: 0 (Herbicidal rate of 5% or less (almost no effect))
- herbicidal effect grade, H: barnyard grass [22]: 0 (Herbicidal rate of 5% or less (almost no effect))
- herbicidal effect grade, I: wild oat [23]: 1 (Herbicidal rate of 5% or more and less than 20%)
- herbicidal effect grade, J: blackgrass [24]: 0 (Herbicidal rate of 5% or less (almost no effect))
- herbicidal effect grade, K: Italian ryegrass [25]: 3 (Herbicidal rate of 40% or more and less than 70%)
- herbicidal effect grade, L: windgrass [26]: 0 (Herbicidal rate of 5% or less (almost no effect))
- herbicidal effect grade, M: velvetleaf [27]: 5 (Herbicidal rate of 90% or more (almost completely withered))
- herbicidal effect grade, N: redroot pigweed [28]: 5 (Herbicidal rate of 90% or more (almost completely withered))
- herbicidal effect grade, O: lambsquarters [29]: 0 (Herbicidal rate of 5% or less (almost no effect))
- herbicidal effect grade, P: chickweed [30]: 4 (Herbicidal rate of 70% or more and less than 90%)
- herbicidal effect grade, Q: false cleavers [31]: 0 (Herbicidal rate of 5% or less (almost no effect))
- herbicidal effect grade, R: persian speedwell [32]: 4 (Herbicidal rate of 70% or more and less than 90%)
